In patent US9999621B2, “Medical use of artemisinin compounds and gephyrin agonists” (CeMM-Forschungszentrum für Molekulare Medizin GmbH, priority 2014, dated 2018):
pEC50: −log10 of the molar value. Like-named read-outs stand apart in the source and are kept apart here. Blank lines part the entries; values can stand above or below the molecule they belong to.

Assays:
alphaTC1 cells = experiment: Insulin expression in alpha cell line, immunofluorescence; type: cell-based, mouse; settings: for insulin expression in alpha cells: alphaTC1 cells, immunofluorescence
[1] = system: Min6 cells overexpressing ARX; experiment: High-throughput screen for functional repressors of ARX, insulin immunofluorescence; type: cell-based, mouse
Method: Mouse pancreatic cell lines αTC1 (provided by Novo Nordisk) and βTC3 (provided by Novo Nordisk) were grown in low-glucose DMEM supplemented by 10% FBS, 50 U/mL penicillin and 50 μg/mL streptomycin. Mouse pancreatic cell lines Min6 (provided by Novo Nordisk) with Doxycycline inducible construct was grown in high-glucose DMEM supplemented by 15% Tet System Approved FBS (Clonetech 631106), 71 uM 2-mercaptoethanol, 50 U/mL penicillin and 50 ug/mL streptomycin. The cell culture for human islets followed established protocols (Walpita et al., 2012).
Compounds (50 nL) were transferred to black optical suitable 384-well plate (Corning 3712) from DMSO stock plates using acoustic transfer (Labcyte Inc.). Min6 cells (3000 cells per well) were plated in 50 ul media on top of the compounds. Three days after treatment, cells were fixed in 3.7% formaldehyde for ten minutes at room temperature. Following PBS washing, cells were fixed with cold pure methanol at −20° C. for 10 minutes, permeabilized by 1% Triton X-100 in PBS for 30 minutes and blocked by 3% BSA in PBS for 30 minutes. Twenty microliters of primary anti-insulin antibody, diluted in 1:2000 in 1.5% BSA, was added per well and incubated in 4° C. overnight. […]
Images were taken by an automated microscope (Perkin Elmer Operetta) using a 20× objective. […] Images were analyzed by the Harmony (Perkin Elmer) software. […]

gephyrin [2] = target: T1, gephyrin (Mus musculus, UniProt Q8BUV3); experiment: Gephyrin protein levels in alpha cells, Western blot and immunofluorescence; type: cell-based; design: endogenous in cells; host or cells: aTC1 mouse pancreatic alpha cell line; settings: alpha cell line
T1 sequence (Q8BUV3 1-769): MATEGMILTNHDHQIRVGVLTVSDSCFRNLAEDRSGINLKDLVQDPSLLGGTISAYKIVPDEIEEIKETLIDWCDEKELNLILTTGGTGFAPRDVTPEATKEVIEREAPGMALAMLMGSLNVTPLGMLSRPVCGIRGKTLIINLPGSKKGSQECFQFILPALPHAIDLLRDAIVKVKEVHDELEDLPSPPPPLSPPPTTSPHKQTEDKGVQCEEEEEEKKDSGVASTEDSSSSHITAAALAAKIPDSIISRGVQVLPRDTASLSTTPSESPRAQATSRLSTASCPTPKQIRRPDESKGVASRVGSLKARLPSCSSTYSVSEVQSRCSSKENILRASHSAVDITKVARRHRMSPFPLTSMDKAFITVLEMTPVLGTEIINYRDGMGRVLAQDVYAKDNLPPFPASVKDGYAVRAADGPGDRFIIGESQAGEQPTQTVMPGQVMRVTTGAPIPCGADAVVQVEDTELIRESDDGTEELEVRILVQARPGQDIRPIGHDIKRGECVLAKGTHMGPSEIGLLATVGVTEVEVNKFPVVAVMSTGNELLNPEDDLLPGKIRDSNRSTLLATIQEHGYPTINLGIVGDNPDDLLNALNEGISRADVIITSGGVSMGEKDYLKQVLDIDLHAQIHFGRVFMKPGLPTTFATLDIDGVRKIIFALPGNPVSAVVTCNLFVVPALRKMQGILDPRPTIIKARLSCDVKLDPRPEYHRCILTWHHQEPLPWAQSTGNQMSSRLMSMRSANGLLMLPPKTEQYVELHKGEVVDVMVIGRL
Method: Whole cell extracts were generated by lysing cells in NP-40 buffer containing 150 mM sodium chloride, 1.0% NP-40 and 50 mM Tris, pH 8.0 supplemented by Protease Inhibitor Cocktail (Roche). The whole-cell lysate (30 μg) was loaded onto a SDSpolyacrylamide gel for electrophoresis at 30 mA per gel, and then transferred by electrophoresis to a nitrocellulose membrane (GE Healthcare Life Science). All the blots were incubated with the corresponding primary antibodies diluted in 1:1000 in 5% milk at 4° C. overnight and with HRP-labeled secondary antibodies (diluted 1:20000) for 1 h. The signals were detected using ECL Prime Western blotting Detection Reagent (Amersham).

Btbd9 = target: T2, Btbd9 (Mus musculus, UniProt Q8C726); experiment: Chemical proteomics pull-down with artesunate matrix, competition by free artemether; type: binding; settings: artesunate coupled to solid support, with and without competing free artemether
T2 construct: using 10 mg total cell lysate as protein input per replicate; endogenous in cells; host or cells: cell lysate
T2 sequence (Q8C726 1-612): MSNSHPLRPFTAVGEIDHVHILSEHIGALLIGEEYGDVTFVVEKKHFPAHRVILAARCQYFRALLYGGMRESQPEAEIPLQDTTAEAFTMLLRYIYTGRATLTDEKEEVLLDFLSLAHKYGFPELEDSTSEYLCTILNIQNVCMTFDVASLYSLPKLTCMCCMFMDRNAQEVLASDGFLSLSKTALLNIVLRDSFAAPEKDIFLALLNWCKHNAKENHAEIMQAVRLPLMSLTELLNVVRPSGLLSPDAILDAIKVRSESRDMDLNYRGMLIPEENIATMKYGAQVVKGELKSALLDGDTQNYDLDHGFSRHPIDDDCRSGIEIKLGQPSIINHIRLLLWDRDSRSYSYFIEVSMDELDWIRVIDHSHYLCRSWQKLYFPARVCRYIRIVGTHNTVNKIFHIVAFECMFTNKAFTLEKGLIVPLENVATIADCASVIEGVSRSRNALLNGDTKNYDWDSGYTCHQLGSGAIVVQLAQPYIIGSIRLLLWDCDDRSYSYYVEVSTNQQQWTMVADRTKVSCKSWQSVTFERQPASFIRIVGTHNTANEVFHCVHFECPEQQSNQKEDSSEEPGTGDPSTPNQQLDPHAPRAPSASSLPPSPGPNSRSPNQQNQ
Method: (§1) Drug-affinity matrices were prepared essentially as described previously (Huber et al, 2014). Briefly, ethylenediamine (2.7 μL, 40 μmol), ethanolamine (9.7 μL, 160 μmol), and triethylamine (15 μL, 108 μmol) were added to 500 μL NHS-activated Sepharose 4 Fast Flow beads (GE Healthcare Bio-Sciences AB, Uppsala, Sweden) and the reaction was put on a rotary shaker for 24 h. Beads were washed and resuspended in DMSO and NHS-activated artesunate (100 μL, 1.00 μmol) was added to the suspension, and the mixture was put on a rotary shaker for 24 h. Unreacted beads were blocked by addition of NHS-acetate (10 μmol) and triethylamine (25 μL, 180 μmol), followed by agitation on a rotary shaker for 24 h. After washing with DMSO and lysis buffer, beads were incubated with cell lysates.
(§2) Affinity chromatography and elution were performed in duplicate as reported previously (Huber et al, 2014), using 10 mg total cell lysate as protein input per replicate. […]
(§3) The initial peptide identifications were used to deduce independent linear transformations for precursor and fragment masses that would minimize the mean square deviation of measured masses from theoretical. […] A false discovery rate (FDR) of <1% for protein identifications and <0.1% for peptides (including the ones exported with lower scores) was determined by applying the same procedure against a database of reversed protein sequences. […]

CUL3 = experiment: as above; type: binding, mouse; settings: artesunate coupled to solid support, with and without competing free artemether
Method: as §1, §2, §3

gephyrin [3] = target: T1, gephyrin; experiment: as above; type: binding; design: using 10 mg total cell lysate as protein input per replicate; endogenous in cells; host or cells: cell lysate; settings: artesunate coupled to solid support, with and without competing free artemether
Method: as §1, §2, §3

aTC1 cells = experiment: GABAR antagonists combined with artemether, insulin immunofluorescence; type: cell-based, mouse

SMILES: COC1OC2OC3(C)CCC4C(C)CCC(C1C)C24O3 (centres unmarked) [Deoxyartemether]
insulin expression in alpha cells (alphaTC1 cells): no effects

pEC50 (alphaTC1 cells; Mus musculus, 72 h, alpha cells, inducing insulin expression, immunofluorescence (FIG. 3d), read-out: half maximum effective concentration): > 5.00
pEC50 ([1]; Mus musculus, Min6 cells overexpressing ARX, dose response, immunofluorescence (FIG. 3c), read-out: half maximum effective concentration): > 6.00
SMILES: CO[C@H]1O[C@@H]2O[C@@]3(C)CC[C@H]4[C@H](C)CC[C@@H]([C@H]1C)[C@@]24OO3 [artemether]

gephyrin protein levels (gephyrin [2]): dose-dependent increase
SMILES: C[C@@H]1CC[C@H]2[C@@H](C)C(=O)O[C@@H]3O[C@@]4(C)CC[C@@H]1[C@]32OO4 [artemisinin, (3R,5aS,6R,8aS,9R,12S,12aR)-octahydro-3,6,9-trimethyl-3,12-epoxy-12H-pyrano[4,3-j]-1,2-benzodioxepin-10(3H)-one]

enrichment in pull-down (Btbd9): strong enrichment
specific interactor identified by mass spectrometry (gephyrin [3]): top specific interactor
SMILES: C[C@H]1[C@H](OC(=O)CCC(=O)O)O[C@@H]2O[C@@]3(C)CC[C@H]4[C@H](C)CC[C@@H]1[C@@]24OO3 [artesunate]
insulin expression in alpha cells (alphaTC1 cells): active
enrichment in pull-down (CUL3): strong enrichment
insulin levels in the presence of ARX (ARX overexpression phenotype) ([1]; Min6 cells induced to overexpress ARX, 72 hours, immunofluorescence): active

SMILES: CCO[C@H]1O[C@@H]2O[C@@]3(C)CC[C@H]4[C@H](C)CC[C@@H]([C@H]1C)[C@@]24O3 [deoxyarteether]
insulin expression in alpha cells (alphaTC1 cells): inactive

SMILES: COc1ccc(-c2ccc(=N)n(CCCC(=O)O)n2)cc1 [gabazine]
effect of GABAR antagonist on the effects of artemether (aTC1 cells): inhibited the effects of artemether
effect of GABAR antagonist on the effects of artemether (aTC1 cells; listed as Gabazine): inhibits the effects of Artemether

SMILES: Cc1ccsc1C(=CCCN1CCC[C@@H](C(=O)O)C1)c1sccc1C [thiagabine]
insulin expression in alpha cells (alphaTC1 cells): increased the insulin expression
insulin expression in alpha cells (alphaTC1 cells; listed as Thiagabine): increases insulin production
